In article PMC4632735, “Ferulic Acid Exerts Anti-Angiogenic and Anti-Tumor Activity by Targeting Fibroblast Growth Factor Receptor 1-Mediated Angiogenesis” (International Journal of Molecular Sciences, 2015) one finds IC50 data, which are given here for 1 compound.

One assay has as its target T1, FGFR1 (Homo sapiens, UniProt P11362).
T1 construct: kinase domain
Kind of assay: FRET-based in vitro kinase assay (Z'-LYTE); radiometric kinase panel gave […] inhibition at […]. The class given is biochemical.

For the next assay, the target named is FGFR2 (Homo sapiens, UniProt P21802). Kind of assay: in vitro kinase assay; radiometric kinase panel gave […] inhibition at […]. Format: biochemical.
FGFR2, sequence (P21802 22-821): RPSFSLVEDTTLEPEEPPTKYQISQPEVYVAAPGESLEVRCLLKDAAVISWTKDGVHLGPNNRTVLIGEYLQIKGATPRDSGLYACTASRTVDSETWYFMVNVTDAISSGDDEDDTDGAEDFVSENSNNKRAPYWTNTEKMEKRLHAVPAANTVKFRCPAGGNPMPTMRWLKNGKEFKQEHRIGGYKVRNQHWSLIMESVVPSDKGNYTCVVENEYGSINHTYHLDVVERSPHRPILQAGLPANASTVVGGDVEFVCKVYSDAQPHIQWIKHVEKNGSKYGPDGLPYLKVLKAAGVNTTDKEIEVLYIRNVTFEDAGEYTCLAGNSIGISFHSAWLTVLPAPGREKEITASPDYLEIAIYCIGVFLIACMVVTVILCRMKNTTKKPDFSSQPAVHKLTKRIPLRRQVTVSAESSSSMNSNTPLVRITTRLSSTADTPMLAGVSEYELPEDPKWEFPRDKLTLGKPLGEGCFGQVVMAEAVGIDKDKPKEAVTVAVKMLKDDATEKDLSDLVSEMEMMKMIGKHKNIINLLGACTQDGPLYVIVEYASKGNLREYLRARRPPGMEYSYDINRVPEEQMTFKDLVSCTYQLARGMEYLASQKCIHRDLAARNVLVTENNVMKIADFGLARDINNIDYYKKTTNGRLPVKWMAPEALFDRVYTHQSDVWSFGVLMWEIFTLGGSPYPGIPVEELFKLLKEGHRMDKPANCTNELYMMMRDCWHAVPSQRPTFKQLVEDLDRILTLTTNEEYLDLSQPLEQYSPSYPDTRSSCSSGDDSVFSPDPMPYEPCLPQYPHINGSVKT

Each structure is given as a SMILES string.

T1 sequence (P11362 478-767 limits assumed): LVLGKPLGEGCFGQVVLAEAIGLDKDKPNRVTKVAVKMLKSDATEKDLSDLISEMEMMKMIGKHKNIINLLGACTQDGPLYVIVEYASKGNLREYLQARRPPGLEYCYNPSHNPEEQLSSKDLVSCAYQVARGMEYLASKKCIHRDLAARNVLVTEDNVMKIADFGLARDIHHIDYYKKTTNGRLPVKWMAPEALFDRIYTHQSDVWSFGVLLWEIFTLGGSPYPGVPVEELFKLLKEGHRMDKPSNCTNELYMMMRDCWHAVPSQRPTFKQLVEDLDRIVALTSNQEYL

For `COc1cc(/C=C/C(=O)O)ccc1O` [FA, 4-hydroxy-3-methoxycinnamic acid], the results for the IC50 on FGFR1 and against FGFR2 were around 3.78 µM and around 12.5 µM, respectively.
